{
  "source": "paper PMC9297971",
  "about": "(Chembiochem, 2021)",
  "origin": "cited, not measured here",
  "test_system": "HIV-1",
  "conditions": "read-out: IC50 of clinically used T20; ref 15b, 36",
  "note": "pIC50: −log10 of the molar value.",
  "data": [
    {"substance": "Enfuvirtide [T20]", "values": [
      {"measurement": "pIC50", "value": "7.44 to 7.62"}
    ]}
  ]
}
